Laboratory results published in US9187426B2, “Organic compounds” (Novartis AG, priority 2008, dated 2015).

First: O=C(NCc1cccnc1)c1ccnc(N2CCN(Cc3ccc(F)cc3)C2=O)c1 [Example 15.1, 2-(3-(4-fluorobenzyl)-2-oxoimidazolidin-1-yl)-N-(pyridin-3-ylmethyl)isonicotinamide]
Second: O=C(NCc1ccncc1)c1ccnc(N2CCN(Cc3ccc(F)cc3)C2=O)c1 [Example 15.2, 2-(3-(4-fluorobenzyl)-2-oxoimidazolidin-1-yl)-N-(pyridin-4-ylmethyl)isonicotinamide]
The melting point of the first is lower: 153 to 155 °C for the first, 205 to 207 °C for the second.

Compared with `O=C(NCC1CC1)c1ccnc(N2CCN(Cc3ccc(F)cc3)C2=O)c1` [Example 15.5, N-(cyclopropylmethyl)-2-(3-(4-fluorobenzyl)-2-oxoimidazolidin-1-yl)isonicotinamide], `O=C(NCCC1CC1)c1ccnc(N2CCN(Cc3ccc(F)cc3)C2=O)c1` [Example 15.7, N-(2-cyclopropylethyl)-2-(3-(4-fluorobenzyl)-2-oxoimidazolidin-1-yl)isonicotinamide] is lower in melting point: 135 to 137 °C for the first, 123 to 125 °C for the second.

First: O=C(NCc1ccc(F)cc1)c1ccnc(N2CCN(CC3CC3)C2=O)c1 [Example 15.6, 2-(3-(cyclopropylmethyl)-2-oxoimidazolidin-1-yl)-N-(4-fluorobenzyl)isonicotinamide]
Second: O=C(NCc1ccc(F)c(F)c1)c1ccnc(N2CCN(CC3CC3)C2=O)c1 [Example 15.12, 2-(3-(cyclopropylmethyl)-2-oxoimidazolidin-1-yl)-N-(3,4-difluorobenzyl)isonicotinamide]
The melting point of the first is higher: 150 to 151 °C for the first, 134 to 136 °C for the second.

`O=C(NCc1ccccc1)c1ccnc(N2CCN(CC3CC3)C2=O)c1` [Example 15.8, N-benzyl-2-(3-(cyclopropylmethyl)-2-oxoimidazolidin-1-yl)isonicotinamide] and `O=C(NCc1cccnc1)c1ccnc(N2CCN(CC3CC3)C2=O)c1` [Example 15.9, 2-(3-(cyclopropylmethyl)-2-oxoimidazolidin-1-yl)-N-(pyridin-3-ylmethyl)isonicotinamide] cannot be ordered by melting point: 121 to 123 °C for the first, 122 to 123 °C for the second.

Compared with `O=C(NCc1ccccn1)c1ccnc(N2CCN(CC3CC3)C2=O)c1` [Example 15.10, 2-(3-(cyclopropylmethyl)-2-oxoimidazolidin-1-yl)-N-(pyridin-2-ylmethyl)isonicotinamide], `O=C(NCc1ccc(F)cc1)c1ccnc(N2CCN(Cc3ccccn3)C2=O)c1` [Example 15.15, N-(4-fluorobenzyl)-2-(2-oxo-3-(pyridin-2-ylmethyl)imidazolidin-1-yl)isonicotinamide] is higher in melting point: 122 to 123 °C for the first, 141 to 142 °C for the second.

Compared with `O=C(NCc1ccccc1)c1ccnc(-n2cnn(CC3CC3)c2=O)c1` [Example 15.13, N-benzyl-2-(1-(cyclopropylmethyl)-5-oxo-1H-1,2,4-triazol-4(5H)-yl)isonicotinamide], `O=C(NCc1ccccc1)c1ccnc(N2CCN(Cc3ccncc3)C2=O)c1` [Example 15.19, N-benzyl-2-(2-oxo-3-(pyridin-4-ylmethyl)imidazolidin-1-yl)isonicotinamide] is higher in melting point: 137 to 139 °C for the first, 154 to 156 °C for the second.

First: O=C(NCc1ccc(F)c(F)c1)c1ccnc(N2CCN(Cc3ccc(F)cc3)C2=O)c1 [Example 15.14, N-(3,4-difluorobenzyl)-2-(3-(4-fluorobenzyl)-2-oxoimidazolidin-1-yl)isonicotinamide]
Second: O=C(NCc1ccc(F)cc1)c1ccnc(N2CCN(Cc3ccncc3)C2=O)c1 [Example 15.16, N-(4-fluorobenzyl)-2-(2-oxo-3-(pyridin-4-ylmethyl)imidazolidin-1-yl)isonicotinamide]
The melting point of the first is higher: 182 to 183 °C for the first, 161 to 163 °C for the second.

Work on `O=C(NCc1ccc(F)c(F)c1)c1ccnc(N2CCN(Cc3ccccn3)C2=O)c1` [Example 15.18, N-(3,4-difluorobenzyl)-2-(2-oxo-3-(pyridin-2-ylmethyl)imidazolidin-1-yl)isonicotinamide] yielded a melting point of 143 to 145 °C.
